The values that follow come from PMC7356787, “Structure-Activity Relationships for the Anaesthetic and Analgaesic Properties of Aromatic Ring-Substituted Ketamine Esters” (Molecules, 2020).

The IC50 is the concentration at which inhibition is half-maximal.

Structures are written as SMILES. A value given as a limit tells only on which side of the number the result lay.

Series [1] concerns rats. The experiment in a line: Anaesthetic assessment by continuous intravenous infusion in rats (loss and return of righting reflex). It counts as in vivo. As to conditions: rat; for minimal effective dose: iv, i.v. infusion starting at 20 mg/kg/min, measure of sedative potency, mean (SEM), read-out: Sedation LORR: minimal dose for loss of righting reflex (SEM). Here is the method: (§1) The compounds were evaluated for their ability to anaesthetise rats when administered by continuous intravenous infusion, as reported previously. Compounds were administered to initially deliver 20 mg/kg/min (weight-adjusted flow) to achieve a pedal withdrawal reflex score (PWR = 1), then titrated to maintain loss of righting reflex (LORR) for 10 min. Three rats were used in each study, with each group of rats also acting as their own ketamine control. Data were collected on the total dose of drug (mg/kg), to achieve LORR and a PWR = 1, and on the time (in seconds, from cessation of the infusion) to recovery of righting reflex (RORR) (recovery from the hypnotic anaesthesia effect). Given the complexity of the experimental protocol, the total dose for LORR (Table 1) is very consistent, with ranges of only 1.5-fold within each group. The consistency of the post-sedation recovery times are expectedly lower, with ranges of about 2.5-fold. During recovery the rats were monitored for multiple signs of behavioural dysfunction (see biology section for details) and the sum of these scores (from 0 to 4, with 0 being no effect and 4 being severe dysfunction) is given in Table 2. IC50 values for inhibition of the NMDA receptor were conducted by Eurofins PanLabs, Taiwan.
(§2) All animal experiments were conducted at the Ruakura Research Centre, Hamilton, New Zealand, using experimental protocols reviewed and approved by the Ruakura Animal Ethics Committee (ethics ref 12604/13786). Adult female Sprague-Dawley rats of approximately 250–350 g were evaluated in both anaesthetic and analgaesic study protocols. All study agents were delivered by tail vein cannula connected via minibore extension tubing to mechanised infusion pump.
(§3) Following acquisition of baseline physiologic parameters (heart rate, respiratory rate, PWR, and righting reflex (RR)) ketamine or an experimental compound at 10mg/mL were commenced at a rate (weight-adjusted) to deliver 20 mg/kg/min. Dose to loss of righting reflex (LORR see below), and subsequent pedal withdrawal score of 1 (PWR see below) were recorded. Following attaining a PWR of 1, infusion rate was reduced to 6.7 mg/kg/min, then titrated in an up-and-down fashion as required to maintain both dorsal recumbency, and a PWR = 1, to 10 min before cessation. Each study used three rats, with each group of rats also acting as their own ketamine control. Prior odds/evens randomisation determined the order of study drug administration was determined by with a recovery interval of at least three hours afforded between experiments. Records of PWR and RR were made at one-minute intervals throughout, from cessation of infusion to return of righting reflex (RORR), and from cessation of infusion to the animals displaying independent locomotion (walk).
Loss of Righting Reflex (LORR): This is primarily used to assess anaesthetic hypnotic effect. Righting reflex is judged absent when the rat fails to right from a position of dorsal recumbency to a position of sternal recumbency on three attempts performed in rapid succession. Dose to LORR is termed effective potency.

The test system of series [2] is rats. Put plainly: Pedal withdrawal reflex (PWR) scoring during intravenous infusion (analgaesic potency). As to conditions: rat, i.v. infusion, dose to PWR = 1, mean (SEM), read-out: Analgaesia potency: minimal dose for loss of pedal withdrawal reflex (SEM). It counts as in vivo. The protocol:
as §1, §2, §3
Pedal Withdrawal Reflex (PWR) scoring: Nociceptive testing in animals was conducted via 1 s application of constant pressure (firm digital pressure) over the forepaw of the animal. Pedal withdrawal reflex testing is primarily used to assess analgaesic effect, and responses are graded accordingly: 0, absent; 1, flicker; 2, moderate withdrawal; 3, fast withdrawal; 4, Fast withdrawal with cry/preceding apnoea (modified from).

Series [3] deals with rats. Put plainly: Tail flick analgaesic assessment (composite tail flick latency, cTFL). The format is in vivo. As to conditions: rat, 20 mg/kg i.v. infused over 10 min; AUC of %MPE-time curve 0-60 min; measure of analgaesic magnitude/duration. The protocol:
Analgaesic assessment protocol: Animal preparation was in accord with the anaesthetic assessment protocol above. Three rats were used in each study. Following venous cannulation, animals underwent infusion of ketamine or experimental compound at 20 mg/kg over a ten minute interval. A tail flick analgaesia meter (Colombus Instruments, Colombus, Ohio) was then used to determine thermal pain sensitivity. Radiant heat was applied using a shutter-controlled lamp as a heat source focused on a spot located 6–8 cm from the tip of the tail. The intensity of the beam was set at a level producing basal latency times between 2 and 4 s. To prevent thermal tissue injury the cut off time as set at 10 s. A digital response time indicator with a resolution of 0.1s measured the time from initiation of stimulus until tail withdrawal (the flick; TFL).
The TFL response following infusion of control and study drugs was calculated as a percentage of the maximum possible effect (MPE) such that:%MPE = [TFL (post-drug) – TFL (pre-drug)/10 s – TFL (pre-drug)] × 100%(1)
TFL latency was recorded at 5 min intervals from cessation of study drug infusion (time zero) to 60 min. Individual %MPE-time curves were constructed for each animal, and the area under the curve (AUC) adopted as a composite measure of induced analgaesia (cTFL).
In general terms: In hot-plate and tail-flick tests a longer latency is read as antinociception.

Series [4] deals with N-methyl-D-aspartate receptor. Put plainly: Inhibition of the NMDA receptor (Eurofins Panlabs Taiwan). It counts as binding. As to conditions: conducted by Eurofins Panlabs Taiwan. Here is the method: as §1
Series [5] deals with rats. The experiment in a line: Behavioural dysfunction scoring during recovery from infusion. The format is in vivo. As to conditions: rat, during wake-up; sum score 0 (no effect) to 4 (severe dysfunction); mean (SEM). Here is the method:
as §1
Behavioural dysfunction scoring: This was undertaken according to the following table. Observations were made over a one minute interval every five minutes from cessation of infusion until return of normal behaviours (total score = 0). A score of 1 was accorded for any positive behavioural aberration for each of four categories (maximal score 4) during wake-up.
Duration of any behavioural aberration was recorded from RORR as follows: score 0 = nil; score1 = 0–120 s; score 2 = 121–300 s; score 3 = 301–600 s; score 4 = 600+ s.

As for `CC(C)OC(=O)CCNC1(c2ccccc2)CCCCC1=O` (centres unmarked) [3a], the minimal effective dose in the series on rats [1] and with rats [2] was over 200 mg/kg each time. Moreover, the “Analgaesia cTFL (composite tail flick latency)” value (“Analgaesia cTFL” below) with rats [3] turned out to be 0 s. In addition, the IC50 in series [4] was over 1000 µM. The “Behavioural dysfunction Score (SEM): severity on recovery” value (“Behavioural dysfunction Score (SEM)” for short) in the series on rats [5] is on record as 0.5 (0.7).
As to `COC(=O)CCCCNC1(c2ccccc2)CCCCC1=O` (centres unmarked) [3b], the minimal effective dose in the series on rats [1] was found to be 40 mg/kg; with rats [2] it was 45 mg/kg. Moreover, the “Analgaesia cTFL” value in the series with rats [3] came out at 0 s. For the same compound, the IC50 in series [4] was 9.9 µM. In addition, in the series with rats [5], the “Behavioural dysfunction Score (SEM)” value is listed as 1 (0).
The corresponding values for `CC(C)OC(=O)CCNC1(c2ccccc2F)CCCCC1=O` (centres unmarked) [4a] are 59 mg/kg, 62 mg/kg, 1297 s, 249 µM and 1 (0).
As to `COC(=O)CCCCNC1(c2ccccc2F)CCCCC1=O` (centres unmarked) [4b], the minimal effective dose in the series on rats [1] was 35 mg/kg; in the series with rats [2] it was 40 mg/kg. Besides, the “Analgaesia cTFL” value in the series on rats [3] was determined as 11 s. Further, in series [4], the IC50 turned out to be 3.1 µM. Further, the “Behavioural dysfunction Score (SEM)” value with rats [5] is reported as 3 (1.4).
Turning to `Cc1ccccc1C1(NCCC(=O)OC(C)C)CCCCC1=O` (centres unmarked) [6a], the minimal effective dose with rats [1] and in the series with rats [2] was over 200 mg/kg in each case. Besides, the “Analgaesia cTFL” value in the series on rats [3] stood at 393 s. This compound yielded a concentration for half-maximal inhibition (IC50) in series [4] of 428 µM. In the series on rats [5], the “Behavioural dysfunction Score (SEM)” value is 0 (0).
For `COC(=O)CCCCNC1(c2ccccc2C)CCCCC1=O` (centres unmarked) [6b], the minimal effective dose was found to be 37 mg/kg in the series on rats [1] and 43 mg/kg in the series with rats [2]. The “Analgaesia cTFL” value in the series with rats [3] was 91 s. The same compound showed an IC50 in series [4] of 3.4 µM. Also, the “Behavioural dysfunction Score (SEM)” value in the series with rats [5] is on record as 1 (0).
With `COc1ccccc1C1(NCCC(=O)OC(C)C)CCCCC1=O` (centres unmarked) [7a], the minimal effective dose in the series with rats [1] and in the series with rats [2] was over 200 mg/kg each time. The “Analgaesia cTFL” value in the series with rats [3] was found to be 313 s. Also, inhibition in series [4] was half-maximal at 172 µM (IC50). The “Behavioural dysfunction Score (SEM)” value in the series with rats [5] is on record as 0 (0).
`COC(=O)CCCCNC1(c2ccccc2OC)CCCCC1=O` (centres unmarked) [7b]: the minimal effective dose was 34 mg/kg with rats [1] and 49 mg/kg in the series on rats [2]. Further, the “Analgaesia cTFL” value with rats [3] amounted to 2332 s. The 50% inhibitory concentration (IC50) in series [4] was over 1000 µM. For the same compound, in the series on rats [5], the “Behavioural dysfunction Score (SEM)” value is 3 (1).
Turning to `CC(C)OC(=O)CCNC1(c2ccccc2C(F)(F)F)CCCCC1=O` (centres unmarked) [8a], the minimal effective dose in the series with rats [1] and in the series with rats [2] was 64 mg/kg in each case. Further, in the series with rats [3], the “Analgaesia cTFL” value came out at 652 s. The compound further gave an IC50 in series [4] of 290 µM. Further, the “Behavioural dysfunction Score (SEM)” value in the series on rats [5] is 2 (1).
Turning to `COC(=O)CCCCNC1(c2ccccc2C(F)(F)F)CCCCC1=O` (centres unmarked) [8b], the minimal effective dose with rats [1] worked out at 154 mg/kg; with rats [2], 156 mg/kg. Besides, the “Analgaesia cTFL” value in the series with rats [3] came to 1864 s. Also, the IC50 in series [4] turned out to be 128 µM. In addition, the “Behavioural dysfunction Score (SEM)” value in the series with rats [5] is on record as 1 (0).
The corresponding values for `CC(C)OC(=O)CCNC1(c2ccccc2OC(F)(F)F)CCCCC1=O` (centres unmarked) [9a] are 62 mg/kg, 62 mg/kg, 80 s, 184 µM and 1 (0).
Taken in the same sequence, the figures for `COC(=O)CCCCNC1(c2ccccc2OC(F)(F)F)CCCCC1=O` (centres unmarked) [9b] were over 200 mg/kg, over 200 mg/kg, 119 s, 121 µM and 3 (1).
On to `CC(C)OC(=O)CCNC1(c2cccc(Cl)c2)CCCCC1=O` (centres unmarked) [10a], for which the figures for the minimal effective dose with rats [1] and in the series with rats [2] were 67 mg/kg and 58 mg/kg, respectively. Besides, in the series with rats [3], the “Analgaesia cTFL” value is 332 s. For the same compound, the midpoint of inhibition in series [4], the IC50, lay at 164 µM. Further, in the series on rats [5], the “Behavioural dysfunction Score (SEM)” value is given as 1 (0).
For `COC(=O)CCCCNC1(c2cccc(Cl)c2)CCCCC1=O` (centres unmarked) [10b], the minimal effective dose with rats [1] amounted to 51 mg/kg; in the series with rats [2], 61 mg/kg. Further, in the series with rats [3], the “Analgaesia cTFL” value stood at 54 s. The compound also came in with a half-maximal inhibitory concentration (IC50) in series [4] of 13 µM. The “Behavioural dysfunction Score (SEM)” value in the series with rats [5] is listed as 3 (1).
The corresponding values for `Cc1cccc(C2(NCCC(=O)OC(C)C)CCCCC2=O)c1` (centres unmarked) [11a] are 38 mg/kg, 50 mg/kg, 63 s, 466 µM and 2 (1).
Taken in the same sequence, the figures for `COC(=O)CCCCNC1(c2cccc(C)c2)CCCCC1=O` (centres unmarked) [11b] were 39 mg/kg, 43 mg/kg, 104 s, 5.2 µM and 2 (1).
In the case of `COc1cccc(C2(NCCC(=O)OC(C)C)CCCCC2=O)c1` (centres unmarked) [12a], the minimal effective dose was 79 mg/kg with rats [1] and 83 mg/kg in the series on rats [2]. For the same compound, the “Analgaesia cTFL” value in the series on rats [3] was found to be 284 s. In series [4], this compound displayed a half-maximal inhibitory concentration (IC50) of 201 µM. In addition, the “Behavioural dysfunction Score (SEM)” value in the series with rats [5] was 2 (0).
Regarding `COC(=O)CCCCNC1(c2cccc(OC)c2)CCCCC1=O` (centres unmarked) [12b], the minimal effective dose with rats [1] came out at 50 mg/kg; in the series with rats [2], 58 mg/kg. Moreover, the “Analgaesia cTFL” value in the series on rats [3] came out at 210 s. Further, in series [4], the IC50 is 5.6 µM. Besides, the “Behavioural dysfunction Score (SEM)” value in the series on rats [5] is listed as 3 (1.4).
Take `COC(=O)CCCCNC1(c2ccc(OC)cc2)CCCCC1=O` (centres unmarked) [17b]: the “Seizure-inducing effect during infusion” value with rats [1] (i.v. infusion in anaesthetic assessment protocol) was “seizure-inducing effect”. Further, the “Analgaesia cTFL” value in the series on rats [3] was determined as 551 s. The compound also had an IC50 in series [4] of 94.1 µM. Besides, in the series with rats [5], the “Behavioural dysfunction Score (SEM)” value is recorded as 3 (0).
Consider `COC(=O)CCCCNC1(c2cccs2)CCCCC1=O` (centres unmarked) [20b], for which the minimal effective dose with rats [1] was 52 mg/kg; in the series with rats [2], 74 mg/kg. Besides, in the series on rats [3], the “Analgaesia cTFL” value amounted to 196 s. In addition, 8.9 µM corresponded to half-maximal inhibition in series [4] (IC50).
